Columns and labels:
[1] = test system: CAP1 (DNA, aptamer) CGACATAGAGGATCCATCTTGGGGTGTGTAGTGTGTCG; assay: fluorescence titration; conditions: 10 mM Mg2+; 20 mM Tris-HCl pH 7.8; CAP1 titrated into 2.5 μM ThT
[2] = test system: CAP1 (DNA, aptamer) CGACATAGAGGATCCATCTTGGGGTGTGTAGTGTGTCG; assay: ITC; conditions: 300 mM Na+, 5 mM K+, 10 mM Mg2+; 50 mM Tris-HCl pH 7.8, 25 °C, preannealed
[3] = test system: CAP3 (DNA, aptamer) CGACCTAGTGTCCATCGTTCAGTTCCGATTTCTGGTCG; assay: ThT fluorescence displacement; conditions: 10 mM Mg2+; 50 mM Tris-HCl pH 7.8; 1 μM aptamer, 0.5 μM ThT displaced
[4] = test system: CAP1 (DNA, aptamer) CGACATAGAGGATCCATCTTGGGGTGTGTAGTGTGTCG; assay: ThT fluorescence displacement; conditions: 10 mM Mg2+; 50 mM Tris-HCl pH 7.8; 1 μM aptamer, 0.5 μM ThT displaced

Row | Kd [1] [µM] | Kd [2] [µM] | Kd [3] [µM] | Kd [4] [µM] | Compound
1 | 2.3 |  |  |  | Cc1ccc2c(c1)sc(-c1ccc(N(C)C)cc1)[n+]2C
2 |  | 9.8 ± 0.5 | 46 | 4.2 | O=C(N[C@H](CO)[C@H](O)c1ccc([N+](=O)[O-])cc1)C(Cl)Cl

— PMC10442912 (2023)
